system: HCV genotype 1b replicon; test: HCV replicon assay, cell ELISA with antibody to replicon-encoded NS3/4A (genotype 1b replicon); type: cell-based, hepatitis C virus; settings: Hepatitis C virus, 96 h, read-out: 1b IC50(nM), HCV genotype 1b replicon; 96 hours incubation; NS3/4A cell ELISA
Outline: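 An ELISA on lysed cells, using an antibody against NS3/4A protease, served as the proxy for replicon RNA. Cells had first been exposed for 96 h to serially diluted compound in G418-free conditions. Percent of DMSO control was fitted with a four-parameter function to give IC50.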

Compared with `CNC(=O)c1c(-c2ccc(F)cc2)oc2cc(N(C)S(C)(=O)=O)c(-c3ccc(O)c(-c4nc5c(F)cccc5o4)c3)cc12` [Example 606, 5-(3(4-fluorobenzo[d]oxazol-2-yl)-4-hydroxyphenyl)-2(4-fluorophenyl)-N-methyl-6-(N-methylmethylsulfonamido)benzofuran-3-carboxamide], `CNC(=O)c1c(-c2ccc(F)cc2)oc2cc(N(C)S(C)(=O)=O)c(-c3ccc(Cl)c(-c4nc5c(F)cccc5o4)c3)cc12` [Example 865] is 2-fold lower in IC50: 9.32 nM for the first, 4.7 nM for the second.

First: CNC(=O)c1c(-c2ccc(F)cc2)oc2cc(N(CC(C)(CO)CO)S(C)(=O)=O)c(-c3ccc(OC)c(-c4nc5c(F)cc(F)cc5o4)c3)cc12 [Example 788]
Second: CNC(=O)c1c(-c2ccc(F)cc2)oc2cc(N(CC(C)(CF)CF)S(C)(=O)=O)c(-c3ccc(OC)c(-c4nc5c(F)cc(F)cc5o4)c3)cc12 [Example 809]
The IC50 of the first is 2.7-fold lower: 79 nM for the first, 213 nM for the second.

`CNC(=O)c1c(-c2ccc(F)cc2)oc2cc(N(CCC3COC(C)(C)O3)S(C)(=O)=O)c(-c3ccc(OC)c(-c4nc5c(F)cc(F)cc5o4)c3)cc12` (stereo not shown) [Example 771] and `CNC(=O)c1c(-c2ccc(F)cc2)oc2cc(N(CC(C)(C)O)S(C)(=O)=O)c(-c3ccc(OC)c(-c4nc5cc(F)cc(F)c5o4)c3)cc12` [Example 780] are within 1.5-fold of each other in IC50: 13.3 nM for the first, 18.5 nM for the second.

Compared with `CNC(=O)c1c(-c2ccc(F)cc2)oc2cc(N(C)S(C)(=O)=O)c(-c3cccc(-n4nc5ccccc5c4-c4cccnc4)c3)cc12` [Example 549], `CNC(=O)c1c(-c2ccc(F)cc2)oc2cc(N(CCCF)S(C)(=O)=O)c(-c3cccc(-c4nc5ncccc5o4)c3)cc12` [Example 868] is 51-fold lower in IC50: 65.9 nM for the first, 1.3 nM for the second. The second is the more potent here.

Compared with `CNC(=O)c1c(-c2ccc(F)cc2)oc2cc(N(C(CO)CO)S(C)(=O)=O)c(-c3ccc(OC)c(-c4nc5c(F)cccc5o4)c3)cc12` [Example 782], `CNC(=O)c1c(-c2ccc(F)cc2)oc2cc(N(CC(C)(C)F)S(C)(=O)=O)c(-c3ccc(OC)c(-c4nc5c(F)cccc5o4)c3)cc12` [Example 789] is 3.5-fold higher in IC50: 5.41 nM for the first, 18.7 nM for the second. The first is the more potent here.

First: CNC(=O)c1c(-c2ccc(F)cc2)oc2cc(N(CCC(C)(C)O)S(C)(=O)=O)c(-c3ccc(OC)c(-c4nc5ncccc5o4)c3)cc12 [Example 880]
Second: CNC(=O)c1c(-c2ccc(F)cc2)oc2cc(N(CC(C)(C)O)S(C)(=O)=O)c(-c3ccc(OC)c(-c4nc5cccc(F)c5o4)c3)cc12 [Example 778]
The IC50 of the first is 8.6-fold lower: 2.9 nM for the first, 24.8 nM for the second. The first is the more potent here.

Going from `CNC(=O)c1c(-c2ccc(F)cc2)oc2cc(N(C)S(C)(=O)=O)c(-c3ccc(C(=O)O)c(-c4nc5c(F)cccc5o4)c3)cc12` [Example 651] to `CNC(=O)c1c(-c2ccc(F)cc2)oc2cc(N(C3COC3)S(C)(=O)=O)c(-c3ccc(OC)c(-c4nc5c(C#N)cccc5o4)c3)cc12` [Example 722], the IC50 falls from 155 nM to 3.03 nM (51-fold). The second is the more potent here.

same assay, conditions: Hepatitis C virus, 96 h, read-out: Replicon 1b IC50 (nM), HCV genotype 1b replicon cells, 96 hours incubation, NS3/4A ELISA readout

First: CNC(=O)c1c(-c2ccc(F)cc2)oc2cc(N(C)S(C)(=O)=O)c(-c3ccc(Cl)c(-c4nc5cccnc5[nH]4)c3)cc12 [Example 319]
Second: CNC(=O)c1c(-c2ccc(F)cc2)oc2cc(N(C)S(C)(=O)=O)c(-c3ccc(F)c(-c4nc5cccnc5[nH]4)c3)cc12 [Example 308]
The IC50 of the first is 5.4-fold higher: 13.6 nM for the first, 2.5 nM for the second. The second is the more potent here.

Compared with `CNC(=O)c1c(-c2ccc(F)cc2)oc2cc(N(C)S(C)(=O)=O)c(-c3cccc(C)c3)cc12` [Example 81, 2-(4-fluorophenyl)-N-methyl-6-[methyl (methylsulfonyl)amino]-5-(3-methylphenyl)-1-benzofuran-3-carboxamide], `CONC(=O)c1c(-c2ccc(F)cc2)oc2cc(N(C)S(C)(=O)=O)c(-c3cccc(C)c3)cc12` [Example 92, 2-(4-fluorophenyl)-N-methoxy-6-[methyl (methylsulfonyl)amino]-5-(3-methylphenyl)-1-benzofuran-3-carboxamide] is 2.2-fold higher in IC50: 117 nM for the first, 252 nM for the second. The first is the more potent here.

`CNC(=O)c1c(-c2ccc(F)cc2)oc2cc(N(C)S(C)(=O)=O)c(-c3ccc(F)c(-c4nc5ccc(C)cc5s4)c3)cc12` [Example 294] and `CNC(=O)c1c(-c2ccc(F)cc2)oc2cc(N(C)S(C)(=O)=O)c(-c3ccc(F)c(-c4nc5ccc(F)cc5s4)c3)cc12` [Example 293] are within 1.5-fold of each other in IC50: 10 nM for the first, 8.6 nM for the second.

`CNC(=O)c1c(-c2ccc(F)cc2)oc2cc(N(C)S(C)(=O)=O)c(-c3cccc(-c4nc5ccc(C)cc5s4)c3)cc12` [Example 143, 2-(4-fluorophenyl)-N-methyl-5-[3-(6-methyl-1,3-benzothiazol-2-yl)phenyl]-6-[methyl(methylsulfonyl)amino]-1-benzofuran-3-carboxamide] and `CNC(=O)c1c(-c2ccc(F)cc2)oc2cc(N(C)S(C)(=O)=O)c(-c3cccc(-c4nc5ccc(Cl)cc5o4)c3)cc12` [Example 171] are within 1.5-fold of each other in IC50: 8 nM for the first, 6.8 nM for the second.

`CNC(=O)c1c(-c2ccc(F)cc2)oc2cc(N(C)S(C)(=O)=O)c(-c3cc(Cl)cc(-c4nc5ncccc5o4)c3)cc12` [Example 203] and `CNC(=O)c1c(-c2ccc(F)cc2)oc2cc(N(C)S(C)(=O)=O)c(-c3cc(F)c(OC)c(-c4nc5ncccc5o4)c3)cc12` [Example 232] are the same in IC50: 2.4 nM for the first, 2.4 nM for the second.

Going from `CNC(=O)c1c(-c2ccc(F)cc2)oc2cc(N(C)S(C)(=O)=O)c(-c3ccc(OC)c(-c4nc5c(C)cccc5o4)c3)cc12` [Example 190] to `CNC(=O)c1c(-c2ccc(F)cc2)oc2cc(N(C)S(C)(=O)=O)c(-c3ccc(OC)c(-c4nc5c(C#N)cccc5o4)c3)cc12` [Example 403, 5-(3-(4-cyanobenzo[d]oxazol-2-yl)-4-methoxyphenyl)-2-(4-fluorophenyl)-N-methyl-6-(N-methylmethylsulfonamido)benzofuran-3-carboxamide], the IC50 rises from 2.2 nM to 3.8 nM (1.7-fold).

`CNC(=O)c1c(-c2ccc(F)cc2)oc2cc(N(C)S(C)(=O)=O)c(-c3cc(C#N)cc(-c4nc5ccc(OC)nc5[nH]4)c3)cc12` [Example 324] and `CNC(=O)c1c(-c2ccc(F)cc2)oc2cc(N(C)S(C)(=O)=O)c(-c3cccc(-c4nc5ccc(OC)nc5[nH]4)c3)cc12` [Example 327] are within 1.5-fold of each other in IC50: 3.5 nM for the first, 3.8 nM for the second.

`CNC(=O)c1c(-c2ccc(F)cc2)oc2cc(N(C)S(C)(=O)=O)c(-c3cccc(-c4nc5ccccc5o4)c3)cc12` [Example 156] and `CNC(=O)c1c(-c2ccc(F)cc2)oc2cc(N(C)S(C)(=O)=O)c(-c3cc(-c4nc5ccccc5o4)ccc3F)cc12` [Example 169] are within 1.5-fold of each other in IC50: 6.9 nM for the first, 6.4 nM for the second.

Going from `CNC(=O)c1c(-c2ccc(F)cc2)oc2cc(N(C)S(C)(=O)=O)c(-c3ccc(C#N)cc3)cc12` [Example 85, 5-(4-cyanophenyl)-2-(4-fluorophenyl)-N-methyl-6-[methyl (methylsulfonyl)amino]-1-benzofuran-3-carboxamide] to `CNC(=O)c1c(-c2ccc(F)cc2)oc2cc(N(C)S(C)(=O)=O)c(-c3cccc(F)c3)cc12` [Example 86, 5-(3-fluorophenyl)-2-(4-fluorophenyl)-N-methyl-6-[methyl (methylsulfonyl)amino]-1-benzofuran-3-carboxamide], the IC50 falls from 43 nM to 28 nM (1.5-fold).

`CNC(=O)c1c(-c2ccc(F)cc2)oc2cc(N(C)S(C)(=O)=O)c(-c3ccc(Cl)c(-c4nc5c(C)ccnc5[nH]4)c3)cc12` [Example 321] and `CNC(=O)c1c(-c2ccc(F)cc2)oc2cc(N(C)S(C)(=O)=O)c(-c3cc(-c4nc5cccnc5o4)ccc3Cl)cc12` [Example 230] are within 1.5-fold of each other in IC50: 6.6 nM for the first, 8.3 nM for the second.

`CNC(=O)c1c(-c2ccc(F)cc2)oc2cc(N(C)S(C)(=O)=O)c(-c3ccc(OC)c(-c4nc5ccc(C)cc5o4)c3)cc12` [Example 191] and `CNC(=O)c1c(-c2ccc(F)cc2)oc2cc(N(C)S(C)(=O)=O)c(-c3ccc(OC)c(-c4nc5ncccc5o4)c3)cc12` [Example 238] are within 1.5-fold of each other in IC50: 4.1 nM for the first, 2.9 nM for the second.

`CNC(=O)c1c(-c2ccc(F)cc2)oc2cc(N(CC3CCCCC3)S(C)(=O)=O)c(-c3ccccc3)cc12` [Example 13, 6-[(cyclohexylmethyl)(methylsulfonyl)amino]-2-(4-fluorophenyl)-N-methyl-5-phenyl-1-benzofuran-3-carboxamide] and `CCOC(=O)CCCN(c1cc2oc(-c3ccc(F)cc3)c(C(=O)NC)c2cc1-c1ccccc1)S(C)(=O)=O` [Example 42, ethyl 4-{[2-(4-fluorophenyl)-3-(methylcarbamoyl)-5-phenyl-1-benzofuran-6-yl](methylsulfonyl)amino}butanoate] are within 1.5-fold of each other in IC50: 84 nM for the first, 60 nM for the second.

`CNC(=O)c1c(-c2ccc(F)cc2)oc2cc(N(C)S(C)(=O)=O)c(-c3cc(F)c(F)c(-c4nc5ccccc5o4)c3)cc12` [Example 194] and `CNC(=O)c1c(-c2ccc(F)cc2)oc2cc(N(C)S(C)(=O)=O)c(-c3cc(F)cc(-c4nc5ccc(C)cc5o4)c3)cc12` [Example 166] are within 1.5-fold of each other in IC50: 4.2 nM for the first, 4.4 nM for the second.

Compared with `CNC(=O)c1c(-c2ccc(F)cc2)oc2cc(N(C)S(C)(=O)=O)c(-c3cccc(-c4nc5ccc(Br)cc5[nH]4)c3)cc12` [Example 153, 5-[3-(6-bromo-1H-benzimidazol-2-yl)phenyl]-2-(4-fluorophenyl)-N-methyl-6-[methyl (methylsulfonyl)amino]-1-benzofuran-3-carboxamide], `CNC(=O)c1c(-c2ccc(F)cc2)oc2cc(N(C)S(C)(=O)=O)c(-c3cccc(-c4cc5ncccc5[nH]4)c3)cc12` [Compound 368] is 2.5-fold lower in IC50: 4 nM for the first, 1.6 nM for the second.

Going from `CNC(=O)c1c(-c2ccc(F)cc2)oc2cc(N(C)S(C)(=O)=O)c(-c3cc(OC)c(OC)c(-c4nc5cccnc5o4)c3)cc12` [Example 235] to `CNC(=O)c1c(-c2ccc(F)cc2)oc2cc(N(C)S(C)(=O)=O)c(-c3cccc(OC)c3)cc12` [Example 88, 2-(4-fluorophenyl)-5-(3-methoxyphenyl)-N-methyl-6-[methyl (methylsulfonyl)amino]-1-benzofuran-3-carboxamide], the IC50 rises from 4 nM to 52 nM (13-fold).

First: CNC(=O)c1c(-c2ccc(F)cc2)oc2cc(N(C)S(C)(=O)=O)c(-c3cc(-c4nc5ccccc5s4)ccc3F)cc12 [Example 290]
Second: CNC(=O)c1c(-c2ccc(F)cc2)oc2cc(N(C)S(C)(=O)=O)c(-c3cccc(-c4cn5ccccc5n4)c3)cc12 [Example 141, 2-(4-fluorophenyl)-5-[3-(imidazo[1,2-a]pyridin-2-yl)phenyl]-N-methyl-6-[methyl (methylsulfonyl)amino]-1-benzofuran-3-carboxamide]
The IC50 of the first is 2.3-fold higher: 6.9 nM for the first, 3 nM for the second. The second is the more potent here.
